The text below walks through data of patent publication US20250057860A1, “READY-TO-DILUTE FORMULATION” (priority 2021, published 2025).

For series [1] the following is noted: cited from earlier work.
Series [2] is described as follows: Solubility of remdesivir in water in the presence of surfactants. The class given is physicochemical. The method, then: The effect of various surfactants on the solubility of remdesivir in water was also tested.
Series [3] in a line: Initial screening: effect of excipients on remdesivir solubility. It counts as physicochemical.

With remdesivir, the “solubility in water (in words)” value in series [1] is “insoluble”. The “Remdesivir Solubility” value was 0.020 mg/mL in series [2] (water with Kolliphor EL (Polyoxyl 35 Castor Oil; Cremophor) 0.10 % w/w), 0.006 mg/mL in series [2] (water with Poloxamer P407 0.07 % w/w), 0.016 mg/mL in series [2] (water with TWEEN 20 (Polysorbate 20) 0.16 % w/w) and 0.033 mg/mL in series [2] (water with TWEEN 80 (Polysorbate 80) 0.30 % w/w). Besides, the Solubility in series [3] (in Benzyl Alcohol) is no less than 56 mg/mL; in series [3] (in Ethanol), no less than 21 mg/mL; in series [3] (in N-methyl pyrrolidone) it was greater than 100 mg/mL; in series [3] (in N-methyl-2-pyrrolidone (NMP)), no less than 112 mg/mL; in series [3] (in NMP + Ethanol), no less than 226 mg/mL; in series [3] (in PEG 300), no less than 39 mg/mL. In addition, the Solubility in series [3] (in PEG 400) is no less than 16 mg/mL; in series [3] (in PEG 400 + Glycerol (3:5)), 0.011 mg/mL; in series [3] (in PEG 400 + Glycerol (3:10)) it was 0.0008 mg/mL; in series [3] (in PEG 600) it was no less than 6.2 mg/mL; in series [3] (in PEG 1000), no less than 6.3 mg/mL; in series [3] (in Peppermint Oil), 15.9 mg/mL. In addition, the Solubility is recorded as no less than 66 mg/mL in series [3] (in Plasdone (PVP) + PEG 300); no less than 29 mg/mL in series [3] (in Propylene Glycol); no less than 34 mg/mL in series [3] (in Soluplus + Ethanol + Water); 0.006 mg/mL in series [3] (in Span 20); 0.3 mg/mL in series [3] (in Span 80); “over 50 mg/ml” in series [3] (in low molecular weight polyethylene glycols (PEG 300 and 400) in the presence of low molecular weight PVP).
